Reference: patent US11530207B2, “Compounds for the treatment of cancer” (SKYHAWK THERAPEUTICS, INC., priority 2018, dated 2022)

Test system: A673 cells
Experiment: Dose-response cell proliferation assay in A673 cells (crystal violet)
Format: cell-based
Details: Homo sapiens, A673 cells, 10,000 cells per well, 72 h treatment
Procedure: Small molecule splicing modulators were tested in a dose-response assay using A673 cells. A673 cells were first plated in 96-well plastic tissue culture plates (10,000 cells per well). The cells were treated with vehicle alone (DMSO), or increasing concentrations of SMSM compounds for 72 h. Following treatment, cell proliferation was determined using a crystal violet assay. The relative cell proliferation at each concentration was determined.

SMILES	IC50 [µM]
CNC(=O)/C=C/c1ccc(-c2ccc(N(C)[C@H]3C[C@]4(C)CCC[C@](C)(C3)N4)nn2)c(O)c1 [SMSM 14, (E)-3-(4-(6-(((1R,3s,5S)-1,5-dimethyl-9-azabicyclo[3.3.1]nonan-3-yl)(methyl)amino)pyridazin-3-yl)-3-hydroxyphenyl)-N-methylacrylamide]	0.0016
CNC(=O)/C=C/c1cc(O)c(-c2ccc(N(C)[C@H]3C[C@]4(C)CC[C@](C)(C3)N4)nn2)cc1F [SMSM 9]	1.95
CNC(=O)/C=C/c1cc(O)c(-c2ccc(N(C)[C@H]3C[C@]4(C)CCC[C@](C)(C3)N4)nn2)cc1F [SMSM 15, (E)-3-(4-(6-(((1R,3s,5S)-1,5-dimethyl-9-azabicyclo[3.3.1]nonan-3-yl)(methyl)amino)pyridazin-3-yl)-2-fluoro-5-hydroxyphenyl)-N-methylacrylamide]	0.0007
CNC(=O)/C=C/c1ccc(-c2ccc(O[C@@H]3C[C@H]4CCC[C@@H](C3)N4)nn2)c(O)c1 [SMSM 20, (E)-3-(4-(6-(((1R,3s,5S)-9-azabicyclo[3.3.1]nonan-3-yl)ypoxy)pyridazin-3-yl)-3-hydroxyphenyl)-N-methylacrylamide]	0.793
CNC(=O)/C=C/c1ccc(-c2ccc(N3C[C@H]4CNC[C@H]4C3)nn2)c(O)c1 [SMSM 2, (E)-3-(4-(6-((3aR,6aS)-hexahydropyrrolo[3,4-c]pyrrol-2(1H)-yl)pyridazin-3-yl)-3-hydroxyphenyl)-N-methylacrylamide]	0.009
CNC(=O)/C=C/c1ccc(-c2ccc(N3CCC(N)CC3)nn2)c(O)c1 [SMSM 18, (E)-3-(4-(6-(4-aminopiperidin-1-yl)pyridazin-3-yl)-3-hydroxyphenyl)-N-methylacrylamide]	> 1
CN(C)C(=O)/C=C/c1ccc(-c2ccc(N(C)[C@@H]3C[C@H]4CCC[C@@H](C3)N4)nn2)c(O)c1 [SMSM 7, (E)-3-(4-(6-(((1R,3s,5S)-9-azabicyclo[3.3.1]nonan-3-yl)(methyl)amino)pyridazin-3-yl)-3-hydroxyphenyl)-N,N-dimethylacrylamide]	0.0037
CN(c1ccc(-c2ccc(/C=C/c3nnn[nH]3)cc2O)nn1)[C@H]1C[C@]2(C)CC[C@](C)(C1)N2 [SMSM 12, 5-((E)-2-(1H-tetrazol-5-yl)vinyl)-2-(6-(((1R,3s,5S)-1,5-dimethyl-8-azabicyclo[3.2.1]octan-3-yl)(methyl)amino)pyridazin-3-yl)phenol]	> 1
CNC(=O)/C=C/c1ccc(-c2ccc(N(C)C3CC(C)(C)NC(C)(C)C3)nn2)c(O)c1 [SMSM 16, (E)-3-(3-hydroxy-4-(6-(methyl(2,2,6,6-tetramethylpiperidin-4-yl)amino)pyridazin-3-yl)phenyl)-N-methylacrylamide]	0.0002
CNC(=O)/C=C/c1ccc(-c2ccc(N(C)[C@@H]3C[C@H]4CCC[C@@H](C3)N4)nn2)c(O)c1 [SMSM 6, (E)-3-(4-(6-(((1R,3s,5S)-9-azabicyclo[3.3.1]nonan-3-yl)(methyl)amino)pyridazin-3-yl)-3-hydroxyphenyl)-N-methylacrylamide]	3.12
CNC(=O)/C=C/c1ccc(-c2ccc(O[C@@H]3C[C@@H]4C[C@H]3CN4)nn2)c(O)c1 [SMSM 22, (E)-3-(4-(6-(((1S,4S,5R)-2-azabicyclo[2.2.1]heptan-5-yl)oxy)pyridazin-3-yl)-3-hydroxyphenyl)-N-methylacrylamide]	0.33
CNC(=O)/C=C/c1cc(O)c(-c2ccc(N(C3CC3)[C@H]3C[C@]4(C)CCC[C@](C)(C3)N4)nn2)cc1F [SMSM 13, (E)-3-(4-(6-(cyclopropyl((lR,3s,5 S)-1,5-dimethyl-9-azabicyclo[3.3.1]nonan-3-yl)amino)pyridazin-3-yl)-2-fluoro-5-hydroxyphenyl)-N-methylacrylamide]	> 1
CN(C)C(=O)/C=C/c1ccc(-c2ccc(O[C@@H]3C[C@H]4CCC[C@@H](C3)N4)nn2)c(O)c1 [SMSM 19]	> 1
CNC(=O)/C=C/c1cc(O)c(-c2ccc(N3CCC(N)CC3)nn2)cc1F [SMSM 17, (E)-3-(4-(6-(4-aminopiperidin-1-yl)pyridazin-3-yl)-2-fluoro-5-hydroxyphenyl)-N-methylacrylamide]	0.0003
CNC(=O)/C=C/c1cc(O)c(-c2ccc(N(C)[C@@H]3C[C@H]4CCC[C@@H](C3)N4)nn2)cc1F [SMSM 8, (E)-3-(4-(6-(((1R,3s,5S)-9-azabicyclo[3.3.1]nonan-3-yl)(methyl)amino)pyridazin-3-yl)-2-fluoro-5-hydroxyphenyl)-N-methylacrylamide]	0.02
CNC(=O)/C=C/c1ccc(-c2ccc(O[C@H]3C[C@H]4C[C@@H]3CN4)nn2)c(O)c1 [SMSM 21]	0.369
CNC(=O)/C=C/c1ccc(-c2ccc(N(C)[C@H]3C[C@]4(C)CC[C@](C)(C3)N4)nn2)c(O)c1 [SMSM 10, (E)-3-(4-(6-(((1R,3s,5S)-1,5-dimethyl-8-azabicyclo[3.2.1]octan-3-yl)(methyl)amino)pyridazin-3-yl)-3-hydroxyphenyl)-N-methylacrylamide]	1.58
CNC(=O)/C=C/c1ccc(-c2ccc(O[C@@H]3C[C@H]4CC[C@@H](C3)N4)nn2)c(O)c1 [SMSM 4, (E)-3-(4-(6-(((1R,3s,5S)-8-azabicyclo[3.2.1]octan-3-yl)oxy)pyridazin-3-yl)-3-hydroxyphenyl)-N-methylacrylamide]	0.007
CNC(=O)/C=C/c1ccc(-c2ccc(S[C@@H]3C[C@H]4CC[C@@H](C3)N4)nn2)c(O)c1 [SMSM 23, (E)-3-(4-(6-(((1R,3s,5S)-8-azabicyclo[3.2.1]octan-3-yl)thio)pyridazin-3-yl)-3-hydroxyphenyl)-N-methylacrylamide]	0.201
CNC(=O)/C=C/c1ccc(-c2ccc(N(C)[C@@H]3C[C@H]4CC[C@@H](C3)N4)nn2)c(O)c1 [SMSM 3, (E)-3-(4-(6-(((1R,3s,5S)-8-azabicyclo[3.2.1]octan-3-yl)(methyl)amino)pyridazin-3-yl)-3-hydroxyphenyl)-N-methylacrylamide]	0.0083
CNC(=O)/C=C/c1cc(O)c(-c2ccc(N(C3CC3)[C@H]3C[C@]4(C)CC[C@](C)(C3)N4)nn2)cc1F [SMSM 11, (E)-3-(4-(6-(cyclopropyl((1R,3s,5 S)-1,5-dimethyl-8-azabicyclo[3.2.1]octan-3-yl)amino)pyridazin-3-yl)-2-fluoro-5-hydroxyphenyl)-N-methylacrylamide]	1.39
CNC(=O)/C=C/c1cc(O)c(-c2ccc(N3C[C@H]4CNC[C@H]4C3)nn2)cc1F [SMSM 1, (E)-3-(2-fluoro-4-(6-((3aR,6aS)-hexahydropyrrolo[3,4-c]pyrrol-2(1H)-yl)pyridazin-3-yl)-5-hydroxyphenyl)-N-methylacrylamide]	0.091
CN(C(=O)/C=C/c1ccc(-c2ccc(N(C)[C@@H]3C[C@H]4CCC[C@@H](C3)N4)nn2)c(O)c1)C1CC1 [SMSM 5, (E)-3-(4-(6-(((1R,3s,5S)-9-azabicyclo[3.3.1]nonan-3-yl)(methyl)amino)pyridazin-3-yl)-3-hydroxyphenyl)-N-cyclopropyl-N-methylacrylamide]	0.554
